Each block holds one compound with its values, some of them ahead of it.
Assays:
Experiment in all cases: hydroxylation, product quantified by HPLC-DAD ([…] nm)
Format in all cases: biochemical, Dahlia pinnata
Settings in all cases: 1.55 mM NADPH, CrCPR microsomes, pH 7.5, 30 °C
[1] = test system: T1, DvCH3H (chalcone 3-hydroxylase)
T1 construct: gene CH3H; assayed with yeast microsomes containing recombinant Catharanthus roseus CPR (GenBank X69791.1); with NADPH--cytochrome P450 reductase (Catharanthus roseus)

[2] = test system: T1, DvCH3H (chalcone 3-hydroxylase); remark: listed apart in the source
[3] = test system: T1, DvCH3H (chalcone 3-hydroxylase); remark: listed apart in the source

Km ([1]; racemic mixture): 0.402 ± 0.046 µM
SMILES: O=C1CC(c2ccc(O)cc2)Oc2cc(O)cc(O)c21 (racemic) [Racemic Naringenin]

Km [1]: 0.408 ± 0.015 µM
SMILES: O=C1C[C@H](c2ccc(O)cc2)Oc2cc(O)cc(O)c21 [(2R)-Naringenin]

Km [1]: 0.76 ± 0.094 µM
SMILES: O=C1C[C@@H](c2ccc(O)cc2)Oc2cc(O)cc(O)c21 [(2S)-Naringenin]

Km [2]: 0.329 ± 0.007 µM
SMILES: O=c1cc(-c2ccc(O)cc2)oc2cc(O)cc(O)c12 [Apigenin]

Km [3]: 0.622 ± 0.069 µM
SMILES: O=c1c(O)c(-c2ccc(O)cc2)oc2cc(O)cc(O)c12 [Kaempferol]

— PMC9122903, “First purified recombinant CYP75B including transmembrane helix with unexpected high substrate specificity to (2R)-naringenin” (Scientific Reports, 2022)
